We go through 17 compounds from patent US8207156B2, “Substituted pyrazoline compounds, their preparation and use as medicaments” (Laboratorios Del Dr. Esteve, S.A., priority 2005, dated 2012).

Structures can show the parent of a compound that is named as a salt.

Assay [1] addresses T1, CB1 receptor.
T1 construct: IC50 [nM]; radioligand [3H]-CP55940
Description: In-vitro determination of affinity to CB1/CB2-receptors (radioligand [3H]-CP55940 binding). The conditions noted are these: binding data per pharmacological methods part I, table does not say whether human transfected receptor or rat cerebellum. The protocol: (§1) The in-vitro determination of the affinity of the inventive substituted pyrazoline compounds to CB1/CB2-Rezeptors is carried out as described in the publication of Ruth A. Ross, Heather C. Brockie et al., “Agonist-inverse agonist characterization at CB1 and CB2 cannabinoid receptors of L-759633, L759656 and AM630”, British Journal of Pharmacology, 126, 665-672, (1999), whereby the transfected human CB1 and CB2 receptors of Receptor Biology, Inc. are used. The radioligand used for both receptors is [^3H]-CP55940. The respective parts of the description is hereby incorporated by reference and forms part of the present disclosure.
(§2) Binding affinity to CB1 receptor was evaluated according to a modification of the method described by Govaerts et al., Eur J Pharmac Sci 23, 233-243 (2004). The respective parts of the description is hereby incorporated by reference and forms part of the present disclosure.
(§3) Briefly, cerebellum from male wistar rats (250-300 g) were carefully dissected on ice and homogenates were prepared with Potter-Helveheim in a cold 50 mM Tris-HCl solution containing 5 mM MgCl2, 1 mM EDTA and 0.25 M sucrose, pH 7.4. The suspension was centrifuged at 1,000×g for 5 minutes. The supernatants were collected and centrifuged 50,000×g for 15 minutes. The resulting pellets were then resuspended in Tris-HCl buffer without sucrose, homogenized and incubated for 15 min at 37° C. in an orbital shaker bath and centrifuged again at 50,000×g for 15 min. Pellets were weighted, resuspended in Tris-HCl buffer without sucrose, homogenized with Ultraturrax at 13,500 rpm for 3×5 seconds and alicuoted in 0.9 ml volumes in Eppendorf tubes. Alicuotes were centrifuged at 20,800×g for 5 minutes, supernatants discarded and pellets were frozen at −80° C. until use. Total protein concentration was determined using the Bio-Rad Lowry method based kit. Competitive binding experiments were performed in presence of 1 nM [^3H]-CP 55,940 in siliconized glass tubes containing 100 μg protein/tube resuspended in 1 ml final volume of 50 mM Tris-HCl, 5 mM MgCl2, 1 mM EDTA, 0.5% (w/v) bovine serum albumin, pH 7.4. Compounds were present at various concentrations and the non specific binding was determined in the presence of 10 μM HU-210. After 1 hour incubation at 30° C., the suspension was rapidly filtered through 0.5% PEI pre-treated GF/B fiber filters on a 96-well harvester and washed 3 times with 3 ml ice-cold binding buffer without bovine serum albumin. Radioactivity on filters was measured with Wallac Winspectral 1414 counter by liquid scintillation in 6 ml Ecoscint H (National Diagnostics, U.K.). Assays were made in triplicates.
(§4) Binding data were analyzed by non-linear regression with the software GraphPad Prism Version 3.03.

The target of assay [2] is T2, CB1 receptor (UniProt P20272).
T2 construct: other: compound at 10^−7 M; radioligand [3H]-CP55940; other: compound at 10^−8 M
Described as above. As to conditions: for Inhibition [%], 10^−7 M: compound at 10^−7 M; for Inhibition [%], 10^−8 M: compound at 10^−8 M. How it is done:
as §1, §2, §3, §4

Assay [3] has as its target recombinant human cannabinoid 1 receptor (CB1) (Homo sapiens, UniProt P21554). As to the kind of experiment: In vitro determination of antagonism to CB1-receptor ([35S]GTPγS binding assay, CHO cell membranes). The assay is classed as biochemical. The conditions noted are these: compound at 1 μM against agonist WIN 55,212-2 (3 nM to 3 μM); effect of Rimonabant (1 μM) defined as 100%. How it is done:
Chinese hamster ovary (CHO) cells stably expressing recombinant human cannabinoid 1 receptor (CB1) were cultured in nutrient mixture Ham's F 12 supplemented with 10% heat-inactivated fetal bovine serum, 2 mM L-glutamine, 50 U/ml penicillin, 50 U/ml streptomycin and 0.5 mg/ml geneticin. In order to obtain cells, culture flasks were washed twice with phosphate buffered saline and scraped. Then, cells were collected by centrifugation (200×g, 10 min) and stored dry at −80° C. Cells were homogenized in ice-cold 20 mM HEPES, 10 mM EDTA (pH 7.5) and centrifuged at 40,000×g for 15 min at 4° C. The membrane pellet was resuspended in 20 mM HEPES, 0.1 mM EDTA (pH 7.5) and centrifuged for 15 min at 4° C. The final membrane pellet was resuspended in 20 mM HEPES, 0.1 mM EDTA (pH 7.5), and divided in aliquots and stored at −80° C. until use.
The reaction was performed in 96-well plates. Membranes (15 μg protein/well) were incubated for 60 min at 30° C. in buffer (50 mM HEPES, 100 mM KCl, 5 mM MgCl2,1 mM EDTA, 0.1% wt/vol bovine serum albumin, 5 μM GDP, saponin (10 μg/ml), 0.5 nM [^35S]GTPγS, pH 7.4) with compound at a final concentration of 1 μM in either the absence or presence of agonist WIN 55, 212-2 between 3 nM and 3 μM. The incubation was terminated by rapid filtration through Millipore Multiscreen glass fiber FB, and rinsed two-times with ice-cold assay buffer. Filter plates were dried and 30 μl of scintillation liquid was added. Radioactivity was determined using a Wallac Microbeta Trilux. Each experiment was performed at least in duplicate. A WIN 55, 212-2 dose-response experiment either alone or in the presence of Rimonabant (1 μM) was systematically performed.
The average of basal [^35S]GTPγS binding was subtracted from all binding data. In order to compare the antagonism results from one screening campaign to another one, the difference between the maximal agonist effect of WIN 55, 212-2 alone, and the maximal antagonism effect due to WIN 55, 212-2 plus Rimonabant (1 μM) was defined as 100%.

Chain of recombinant human cannabinoid 1 receptor (CB1) (P21554 whole entry): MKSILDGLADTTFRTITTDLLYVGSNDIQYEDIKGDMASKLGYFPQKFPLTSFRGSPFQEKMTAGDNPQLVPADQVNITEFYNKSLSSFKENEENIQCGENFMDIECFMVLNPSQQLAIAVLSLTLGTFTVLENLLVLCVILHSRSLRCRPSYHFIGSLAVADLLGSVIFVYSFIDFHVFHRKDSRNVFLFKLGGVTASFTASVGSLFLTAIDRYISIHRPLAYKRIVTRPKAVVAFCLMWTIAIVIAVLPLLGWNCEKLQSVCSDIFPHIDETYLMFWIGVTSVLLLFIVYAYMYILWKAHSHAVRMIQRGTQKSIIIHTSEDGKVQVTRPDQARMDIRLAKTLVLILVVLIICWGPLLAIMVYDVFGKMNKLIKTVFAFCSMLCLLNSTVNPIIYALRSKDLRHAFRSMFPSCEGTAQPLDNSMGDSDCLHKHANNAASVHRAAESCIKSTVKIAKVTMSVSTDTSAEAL

Broadly, the IC50 is the concentration that gives 50% inhibition. Read a low IC50 as greater potency in that assay. On to `CC(C)(C)C1CCC(NC(=O)C2=NN(c3ccc(Cl)cc3Cl)C(c3ccc(Cl)cc3)C2)CC1` (stereo not drawn) [Example 31, 5-(4-Chloro-phenyl)-1-(2,4-dichloro-phenyl)-4,5-dihydro-1H-pyrazole-3-carboxylic acid (4-tert-butyl-cyclohexyl)-amide], for which the IC50 at CB1 receptor [1] is over 1000 nM.

`Cl.O=C(NN1CCc2ccccc21)C1=NN(c2ccc(Cl)cc2Cl)[C@@H](c2ccc(Cl)cc2)C1` [Example 181, (R)-5-(4-Chloro-phenyl)-1-(2,4-dichloro-phenyl)-4,5-dihydro-1H-pyrazole-3-carboxylic acid (2,3-dihydro-indol-1-yl)-amide hydrochloride]: at CB1 receptor [2], the “Inhibition [%], 10^−7 M” value is on record as 50.6% and the “Inhibition [%], 10^−8 M” value was 33.7%. At CB1 receptor [1] (hydrochloride), the half-inhibitory concentration (IC50) was found to be 24 nM.

`CCCNC(=O)C1=NN(c2ccc(Cl)cc2Cl)C(c2ccc(Cl)cc2)C1` (stereo not drawn) [Example 69, 5-(4-Chloro-phenyl)-1-(2,4-dichloro-phenyl)-4,5-dihydro-1H-pyrazole-3-carboxylic acid propylamide] registered an IC50 at CB1 receptor [1] of 355 nM.

For `O=C(N[C@H]1CCCC[C@@H]1OCc1ccccc1)C1=NN(c2ccc(Cl)cc2Cl)C(c2ccc(Cl)cc2)C1` (stereo partly drawn) [Example 151, N-((1S,2S)-2-(benzyloxy)cyclohexyl)-5-(4-chlorophenyl)-1-(2,4-dichlorophenyl)-4,5-dihydro-1H-pyrazole-3-carboxamide], at CB1 receptor [2], the “Inhibition [%], 10^−7 M” value is reported as 82.3% and the “Inhibition [%], 10^−8 M” value was determined as 67.5%. On CB1 receptor [1], this compound displayed an IC50 of 32 nM.

As to `O=C(NN1CCCCCCC1)C1=NN(c2ccc(Cl)cc2Cl)C(c2ccc(F)cc2)C1` (stereo not drawn) [Example 147, 5-(4-fluoro-phenyl)-1-(2,4-dichloro-phenyl)-4,5-dihydro-1H-pyrazole-3-carboxylic acid azocan-1-ylamide], at CB1 receptor [2], the “Inhibition [%], 10^−7 M” value amounted to 63.4% and the “Inhibition [%], 10^−8 M” value is reported as 24.0%. On CB1 receptor [1], this compound showed a half-inhibitory concentration (IC50) of 54 nM.

With `COc1ccc(C2CC(C(=O)NN3CC4CCCC4C3)=NN2c2ccc(Cl)cc2Cl)cc1.Cl` (stereo not drawn) [Example 109, 1-(2,4-Dichloro-phenyl)-5-(4-methoxy-phenyl)-4,5-dihydro-1H-pyrazole-3-carboxylic acid (hexahydro-cyclopenta[c]pyrrol-2-yl)-amide hydrochloride], on CB1 receptor [2] (hydrochloride), the “Inhibition [%], 10^−7 M” value is reported as 80.6% and the “Inhibition [%], 10^−8 M” value is on record as 44%. In addition, the 50% inhibitory concentration (IC50) on CB1 receptor [1] (hydrochloride) is 16 nM.

As to `O=C(NN1CCCCCC1)C1=NN(c2ccc(Cl)cc2Cl)C(c2ccc(F)cc2)C1` (stereo not drawn) [Example 96, 1-(2,4-Dichloro-phenyl)-5-(4-fluoro-phenyl)-4,5-dihydro-1H-pyrazole-3-carboxylic acid azepan-1-ylamide], on CB1 receptor [2], the “Inhibition [%], 10^−7 M” value is reported as 74.8% and the “Inhibition [%], 10^−8 M” value is reported as 43.3%. Further, the half-inhibitory concentration (IC50) on CB1 receptor [1] was 56 nM.

In the case of `COc1ccc(C2CC(C(=O)NN3CCCCC3)=NN2c2ccc(Cl)cc2Cl)cc1.Cl` (stereo not drawn) [Example 106, 1-(2,4-Dichloro-phenyl)-5-(4-methoxy-phenyl)-4,5-dihydro-1H-pyrazole-3-carboxylic acid piperidin-1-ylamide hydrochloride], at CB1 receptor [2], the “Inhibition [%], 10^−7 M” value was 76.1% and the “Inhibition [%], 10^−8 M” value was determined as 23.4%. At CB1 receptor [1] (hydrochloride), this compound gave an IC50 of 32 nM.

As to `COc1ccc(C2CC(C(=O)NN3CCCCCC3)=NN2c2ccc(Cl)cc2Cl)cc1` (stereo not drawn) [Example 114A, 1-(2,4-Dichloro-phenyl)-5-(4-methoxy-phenyl)-4,5-dihydro-1H-pyrazole-3-carboxylic acid azepan-1-ylamide], on CB1 receptor [2], the “Inhibition [%], 10^−7 M” value is 79.3% and the “Inhibition [%], 10^−8 M” value was 41.4%. This compound also displayed an IC50 on CB1 receptor [1] of 18 nM.

On to `Cl.O=C(NN1CCCC1)C1=NN(c2ccc(Cl)cc2Cl)C(c2ccc(Cl)cc2)C1` (stereo not drawn) [Example 194, 5-(4-Chloro-phenyl)-1-(2,4-dichloro-phenyl)-4,5-dihydro-1H-pyrazole-3-carboxylic acid pyrrolidin-1-ylamide hydrochloride], for which, on CB1 receptor [2], the “Inhibition [%], 10^−7 M” value is given as 41.7% and the “Inhibition [%], 10^−8 M” value was 22.9%. In addition, the “Antagonism [%]” value in assay [3] is reported as 82%.

As to `O=C(NC1CCCCCC1)C1=NN(c2ccc(Cl)cc2Cl)C(c2ccc(Br)cc2)C1` (stereo not drawn) [Example 130, 5-(4-Bromo-phenyl)-1-(2,4-dichloro-phenyl)-4,5-dihydro-1H-pyrazole-3-carboxylic acid cycloheptylamide], on CB1 receptor [2], the “Inhibition [%], 10^−7 M” value is recorded as 67.7% and the “Inhibition [%], 10^−8 M” value is on record as 33.1%. On CB1 receptor [1], this compound came in with an IC50 of 52 nM.

With `O=C(C1=NN(c2ccc(Cl)cc2Cl)C(c2ccc(Cl)cc2)C1)N1CCN(Cc2ccccc2)CC1` (stereo not drawn) [Example 52, (4-Benzyl-piperazin-1-yl)-[5-(4-chloro-phenyl)-1-(2,4-dichloro-phenyl)-4,5-dihydro-1H-pyrazol-3-yl]-methanone], the IC50 on CB1 receptor [1] came out at 251 nM.

`O=C(NN1CCCC1)C1=NN(c2ccc(Cl)cc2Cl)C(c2ccc(Cl)cc2)C1` (stereo not drawn) [Example 11, 5-(4-Chloro-phenyl)-1-(2,4-dichloro-phenyl)-4,5-dihydro-1H-pyrazole-3-carboxylic acid pyrrolidin-1-ylamide] gave an IC50 on CB1 receptor [1] of 630 nM.

With `O=C(NC1CCCCC1)C1=NN(c2ccc(Cl)cc2Cl)C(c2ccc(Cl)cc2)C1` (stereo not drawn) [Example 41, 5-(4-Chloro-phenyl)-1-(2,4-dichloro-phenyl)-4,5-dihydro-1H-pyrazole-3-carboxylic acid cyclohexylamide], at CB1 receptor [2], the “Inhibition [%], 10^−7 M” value is reported as 3.4% and the “Inhibition [%], 10^−8 M” value is −5.2%. In addition, the “Antagonism [%]” value in assay [3] is recorded as 69%.

Regarding `COC(=O)C1=NN(c2ccc(Cl)cc2Cl)C(c2ccc(Cl)cc2)C1` (stereo not drawn) [Example 115, 5-(4-Chloro-phenyl)-1-(2,4-dichloro-phenyl)-4,5-dihydro-1H-pyrazole-3-carboxylic acid methyl ester], on CB1 receptor [2], the “Inhibition [%], 10^−7 M” value was −4.3% and the “Inhibition [%], 10^−8 M” value is on record as 1.9%. Besides, the “Antagonism [%]” value in assay [3] was 23%.

For the compound `O=C(NN1CCCCC1)C1=NN(c2ccc(Cl)cc2Cl)C(c2ccc(Br)cc2)C1` (stereo not drawn) [Example 60, 5-(4-Bromo-phenyl)-1-(2,4-dichloro-phenyl)-4,5-dihydro-1H-pyrazole-3-carboxylic acid piperidin-1-ylamide hydrochloride], on CB1 receptor [1] (hydrochloride), the half-inhibitory concentration (IC50) is 27 nM.

For the compound `CCCCN(NC(=O)C1=NN(c2ccc(Cl)cc2Cl)C(c2ccc(Cl)cc2)C1)c1ccccc1` (stereo not drawn) [Example 29, 5-(4-Chloro-phenyl)-1-(2,4-dichloro-phenyl)-4,5-dihydro-1H-pyrazole-3-carboxylic acid N′-butyl-N′-phenyl-hydrazide], the concentration for half-maximal inhibition (IC50) at CB1 receptor [1] was over 1000 nM.
